Results as given in US20090326032A1, “PHARMACEUTICAL COMPOSITIONS COMPRISING NK1 RECEPTOR ANTAGONISTS AND SODIUM CHANNEL BLOCKERS” (GLAXO GROUP LIMITED, priority 2007, published 2009).
Counter-ions that a name gives are not always drawn. Like-named read-outs stand apart in the source and are kept apart here.

Columns and labels:
[1] = blood and brain drug concentrations in satellite animals; type: in vivo, rat; details: for concentration at 60 min: CD, rat, intraperitoneal
[2] = system: tonic hindlimb extensor seizures; test: threshold for tonic hindlimb extensor seizures, corneal electroshock, 'up and down' method (CC50); type: in vivo, rat; details: ENa7 3 mg/kg s.c. alone, male CD rats
Experimental: This work was conducted in compliance with the Home Office Guidance on the operation of the Animals (Scientific Procedures) Act 1986 and GlaxoSmithKline ethical standards. Male CD rats (100-145 g) were supplied by Charles River, UK. Animals were group housed (6 animal per cage) with free access to food (Standard rodent chow; Harlan, UK) and water under a 12 h light/dark cycle (lights on at 0700 h). A period of at least one week between arrival at GSK and the study was allowed in all cases.
Animals were administered a test compound at the appropriate dose, route and pre-treatment time and returned to their home cage. Testing occurred in a separate room from that used for housing. […] Seizure threshold was determined using the ‘up and down’ method of Kimball et al. (1957)(Kimball A W, Burnett W T Jr, Doherty D G. (1957) Radiat Res. 7(1):1-12). […]
All doses were calculated as base. […]
Induction of seizure is measured as an all-or-nothing effect scored as either present (+) or absent (0) for each animal. […] Drug effects were calculated as the % change in CC50. Significant differences between drug-treated animals and appropriate vehicle treated groups were assessed according to the methods of Litchfield and Wilcoxon (1949). […]

concentration of ENa7 in the presence of the NK1 antagonist ([1]; blood and brain, with vs without ENK6 30 mg/kg)	concentration at 60 min ([1]; blood, 30 mg/kg, ENK6 30 mg/kg, ENa7 veh, n = 1, read-out: Blood ENK6)	concentration at 60 min ([1]; blood, ENK6 30 mg/kg + ENa7 1 mg/kg, n = 2, read-out: Blood ENK6)	concentration at 60 min ([1]; blood, ENK6 30 mg/kg + ENa7 3 mg/kg, n = 2, read-out: Blood ENK6)	concentration at 60 min ([1]; brain, 30 mg/kg, ENK6 30 mg/kg, ENa7 veh, n = 1, read-out: Brain ENK6)	concentration at 60 min ([1]; brain, ENK6 30 mg/kg + ENa7 1 mg/kg, n = 2, read-out: Brain ENK6)	concentration at 60 min ([1]; brain, ENK6 30 mg/kg + ENa7 3 mg/kg, n = 2, read-out: Brain ENK6)	SMILES	seizure threshold [2]
No increase	–	–	–	–	–	–	CN1CC[C@]2(CC[C@H](c3ccc(OCc4ccccc4F)cc3)N2)C1=O.Cl [ENa7, (2R,5R)-2-(4-{[(2-Fluorophenyl)methyl]oxy}phenyl)-7-methyl-1,7-diazaspiro[4.4]nonan-6-one hydrochloride]	robust and significant increase
–	558 ng/mL	456 ng/mL	1210 ng/mL	1260 ng/g	1040 ng/g	4800 ng/g	COc1ccc(-n2nnnc2C(F)(F)F)cc1CN[C@H]1CCCN[C@H]1c1ccccc1 [ENK6, [2-Methoxy-5-(5-trifluoromethyl-tetrazol-1-yl)-benzyl]-([2S,3S]-2-phenyl-piperidin-3-yl)-amine dihydrochloride]	–
